Legend:
pigweed, palmer [1] = assay: Test A preemergence; type: in vivo, Amaranthus palmeri
In short: (§1)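 Greenhouse pot test, 10 days. Compound (non-phytotoxic solvent, surfactant) sprayed on soil at seeding or on seedlings at one- to two-leaf stage. Visual injury rated 0–100 against untreated plants.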

oat, wild [2] = assay: Test A preemergence; type: in vivo, Avena fatua
In short: as §1

wheat [3] = assay: Test A preemergence; type: in vivo, Triticum aestivum
In short: as §1

pigweed, palmer [4] = assay: Test A postemergence; type: in vivo, Amaranthus palmeri
In short: as §1

ryegrass, Italian [5] = assay: Test A preemergence; type: in vivo, Lolium multiflorum
In short: as §1

blackgrass [6] = assay: Test A postemergence; type: in vivo, Alopecurus myosuroides
In short: as §1

barnyardgrass = assay: Test B flooded paddy test; type: in vivo, Echinochloa crus-galli; conditions: 250 g ai/ha, Flood, 13 days, 0 to 100 scale (0 no effect, 100 complete control)
In short: (§2)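 Visual scores from 0 (no effect) to 100 (complete kill) were assigned 13 days after treatment by comparison with controls. Seedlings had been treated at two leaves by adding compound to floodwater standing 3 cm deep, kept at that level in the greenhouse.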

horseweed = assay: Test A postemergence; type: in vivo, Erigeron canadensis
In short: as §1

soybean [7] = assay: Test A postemergence; type: in vivo, Glycine max
In short: as §1

corn [8] = assay: Test A postemergence; type: in vivo, Zea mays
In short: as §1

ducksalad = assay: Test B flooded paddy test; type: in vivo, Heteranthera limosa; conditions: 250 g ai/ha, Flood, 13 days, 0 to 100 scale (0 no effect, 100 complete control)
In short: as §2

rice = assay: Test B flooded paddy test; type: in vivo, Oryza sativa; conditions: 250 g ai/ha, Flood, 13 days, 0 to 100 scale (0 no effect, 100 complete control)
In short: as §2

oat, wild [9] = assay: Test A postemergence; type: in vivo, Avena fatua
In short: as §1

blackgrass [10] = assay: Test A preemergence; type: in vivo, Alopecurus myosuroides
In short: as §1

foxtail, giant [11] = assay: Test A postemergence; type: in vivo, Setaria faberi
In short: as §1

ryegrass, Italian [12] = assay: Test A postemergence; type: in vivo, Lolium multiflorum
In short: as §1

galium = assay: Test A postemergence; type: in vivo, Galium aparine
In short: as §1

soybean [13] = assay: Test A preemergence; type: in vivo, Glycine max
In short: as §1

goosegrass [14] = assay: Test A preemergence; type: in vivo, Eleusine indica
In short: as §1

foxtail, giant [15] = assay: Test A preemergence; type: in vivo, Setaria faberi
In short: as §1

sedge, umbrella = assay: Test B flooded paddy test; type: in vivo, Cyperus difformis; conditions: 250 g ai/ha, Flood, 13 days, 0 to 100 scale (0 no effect, 100 complete control)
In short: as §2

wheat [16] = assay: Test A postemergence; type: in vivo, Triticum aestivum
In short: as §1

goosegrass [17] = assay: Test A postemergence; type: in vivo, Eleusine indica
In short: as §1

corn [18] = assay: Test A preemergence; type: in vivo, Zea mays
In short: as §1

kochia [19] = assay: Test A preemergence; type: in vivo, Bassia scoparia
In short: as §1

ragweed [20] = assay: Test A postemergence; type: in vivo, Ambrosia artemisiifolia
In short: as §1

ragweed [21] = assay: Test A preemergence; type: in vivo, Ambrosia artemisiifolia
In short: as §1

kochia [22] = assay: Test A postemergence; type: in vivo, Bassia scoparia
In short: as §1

[23] = 125 g ai/ha, visual injury after 10 days, 0 to 100 scale, 0 is no effect, 100 is complete control
[24] = 500 g ai/ha, 0 to 100 scale (0 no effect, 100 complete control), 10 days
[25] = 125 g ai/ha, postemergence, 10 days, visual injury, 0 to 100 scale (0 no effect, 100 complete control)
[26] = 500 g ai/ha, Postemergence, 0 to 100 scale

Cc1cccc2c1O[C@@H](C)CN2C(=O)c1ccc(F)c(-n2cncn2)c1 [Compound 52]
10: Plant response rating, Rice (rice) | Plant response rating, Kochia (kochia [22]; [25])
100: Plant response rating, Pigweed, Palmer (pigweed, palmer [1]; [24]) | Plant response rating, Ryegrass, Italian (ryegrass, Italian [5]; [24]) | Plant response rating, Soybean (soybean [7]; [25]) | Plant response rating, Soybean (soybean [7]; [26]) | Plant response rating, Goosegrass (goosegrass [14]; [24]) | Plant response rating, Foxtail, Giant (foxtail, giant [15]; [24])
90: Plant response rating, Foxtail, Giant (foxtail, giant [11]; [26]) | Plant response rating, Galium (galium; [26]) | Plant response rating, Soybean (soybean [13]; [24]) | Plant response rating, Goosegrass (goosegrass [14]; [23]) | Plant response rating, Foxtail, Giant (foxtail, giant [15]; [23])
70: Plant response rating, Corn (corn [8]; [26]) | Plant response rating, Kochia (kochia [19]; [24]) | Plant response rating, Ragweed (ragweed [21]; [24])
25: Plant response rating, Barnyardgrass (barnyardgrass)
80: Plant response rating, Oat, Wild (oat, wild [2]; [24]) | Plant response rating, Ryegrass, Italian (ryegrass, Italian [5]; [23]) | Plant response rating, Oat, Wild (oat, wild [9]; [26]) | Plant response rating, Ryegrass, Italian (ryegrass, Italian [12]; [26])
0: Plant response rating, Pigweed, Palmer (pigweed, palmer [1]; [23]) | Plant response rating, Horseweed (horseweed; [25]) | Plant response rating, Horseweed (horseweed; [26]) | Plant response rating, Kochia (kochia [19]; [23]) | Plant response rating, Ragweed (ragweed [20]; [25]) | Plant response rating, Ragweed (ragweed [21]; [23])
40: Plant response rating, Oat, Wild (oat, wild [2]; [23]) | Plant response rating, Corn (corn [8]; [25]) | Plant response rating, Ryegrass, Italian (ryegrass, Italian [12]; [25]) | Plant response rating, Corn (corn [18]; [24])
60: Plant response rating, Wheat (wheat [3]; [24]) | Plant response rating, Pigweed, Palmer (pigweed, palmer [4]; [26]) | Plant response rating, Blackgrass (blackgrass [6]; [26]) | Plant response rating, Blackgrass (blackgrass [10]; [24]) | Plant response rating, Foxtail, Giant (foxtail, giant [11]; [25]) | Plant response rating, Wheat (wheat [16]; [26]) | Plant response rating, Goosegrass (goosegrass [17]; [26]) | Plant response rating, Kochia (kochia [22]; [26])
75: Plant response rating, Sedge, Umbrella (sedge, umbrella)
50: Plant response rating, Blackgrass (blackgrass [6]; [25]) | Plant response rating, Ducksalad (ducksalad) | Plant response rating, Blackgrass (blackgrass [10]; [23]) | Plant response rating, Goosegrass (goosegrass [17]; [25])
20: Plant response rating, Oat, Wild (oat, wild [9]; [25]) | Plant response rating, Corn (corn [18]; [23])
30: Plant response rating, Wheat (wheat [3]; [23]) | Plant response rating, Pigweed, Palmer (pigweed, palmer [4]; [25]) | Plant response rating, Galium (galium; [25]) | Plant response rating, Soybean (soybean [13]; [23]) | Plant response rating, Wheat (wheat [16]; [25]) | Plant response rating, Ragweed (ragweed [20]; [26])

Cc1c(C(=O)N2CC(C)Oc3c(Cl)cccc32)cccc1-n1cncn1 (centres unmarked) [Compound 40]
10: Plant response rating, Kochia (kochia [22]; [26])
30: Plant response rating, Galium (galium; [25])
0: Plant response rating, Pigweed, Palmer (pigweed, palmer [1]; [23]) | Plant response rating, Pigweed, Palmer (pigweed, palmer [1]; [24]) | Plant response rating, Oat, Wild (oat, wild [2]; [23]) | Plant response rating, Oat, Wild (oat, wild [2]; [24]) | Plant response rating, Wheat (wheat [3]; [23]) | Plant response rating, Wheat (wheat [3]; [24]) | Plant response rating, Pigweed, Palmer (pigweed, palmer [4]; [25]) | Plant response rating, Pigweed, Palmer (pigweed, palmer [4]; [26]) | Plant response rating, Ryegrass, Italian (ryegrass, Italian [5]; [23]) | Plant response rating, Ryegrass, Italian (ryegrass, Italian [5]; [24]) | Plant response rating, Blackgrass (blackgrass [6]; [25]) | Plant response rating, Blackgrass (blackgrass [6]; [26]) | Plant response rating, Barnyardgrass (barnyardgrass) | Plant response rating, Horseweed (horseweed; [25]) | Plant response rating, Horseweed (horseweed; [26]) | Plant response rating, Soybean (soybean [7]; [25]) | Plant response rating, Corn (corn [8]; [25]) | Plant response rating, Corn (corn [8]; [26]) | Plant response rating, Ducksalad (ducksalad) | Plant response rating, Rice (rice) | Plant response rating, Oat, Wild (oat, wild [9]; [25]) | Plant response rating, Oat, Wild (oat, wild [9]; [26]) | Plant response rating, Blackgrass (blackgrass [10]; [23]) | Plant response rating, Blackgrass (blackgrass [10]; [24]) | Plant response rating, Foxtail, Giant (foxtail, giant [11]; [25]) | Plant response rating, Foxtail, Giant (foxtail, giant [11]; [26]) | Plant response rating, Ryegrass, Italian (ryegrass, Italian [12]; [25]) | Plant response rating, Ryegrass, Italian (ryegrass, Italian [12]; [26]) | Plant response rating, Galium (galium; [26]) | Plant response rating, Soybean (soybean [13]; [23]) | Plant response rating, Goosegrass (goosegrass [14]; [23]) | Plant response rating, Goosegrass (goosegrass [14]; [24]) | Plant response rating, Foxtail, Giant (foxtail, giant [15]; [23]) | Plant response rating, Foxtail, Giant (foxtail, giant [15]; [24]) | Plant response rating, Sedge, Umbrella (sedge, umbrella) | Plant response rating, Wheat (wheat [16]; [25]) | Plant response rating, Wheat (wheat [16]; [26]) | Plant response rating, Goosegrass (goosegrass [17]; [25]) | Plant response rating, Goosegrass (goosegrass [17]; [26]) | Plant response rating, Corn (corn [18]; [23]) | Plant response rating, Corn (corn [18]; [24]) | Plant response rating, Kochia (kochia [19]; [23]) | Plant response rating, Kochia (kochia [19]; [24]) | Plant response rating, Ragweed (ragweed [20]; [25]) | Plant response rating, Ragweed (ragweed [20]; [26]) | Plant response rating, Ragweed (ragweed [21]; [23]) | Plant response rating, Ragweed (ragweed [21]; [24]) | Plant response rating, Kochia (kochia [22]; [25])
20: Plant response rating, Soybean (soybean [7]; [26])
40: Plant response rating, Soybean (soybean [13]; [24])
